In brackets after ≈: the same amount, converted by molar mass. Like-named read-outs stand apart in the source and are kept apart here.
Tests used:
[1] = Aqueous solubility by HPLC in H2O, 5% glucose and 0.9% NaCl; assay type: physicochemical
hERG channels = target: T1, hERG channels (Homo sapiens, UniProt Q12809); settings: 30 μM; cited from earlier work
T1 construct: expressed in transfected cells; host or cells: HEK 293

[2] = target: T2, hKv4.3 current (Ito, KCND3) (Homo sapiens, UniProt Q9UK17); assay: Whole-cell patch clamp of hKv4.3 current in HEK 293 cells; assay type: cell-based; settings: 10 μM, at +50 mV, current peak, n = 5
T2 construct: expressed in transfected cells
T2 sequence (Q9UK17 1-655): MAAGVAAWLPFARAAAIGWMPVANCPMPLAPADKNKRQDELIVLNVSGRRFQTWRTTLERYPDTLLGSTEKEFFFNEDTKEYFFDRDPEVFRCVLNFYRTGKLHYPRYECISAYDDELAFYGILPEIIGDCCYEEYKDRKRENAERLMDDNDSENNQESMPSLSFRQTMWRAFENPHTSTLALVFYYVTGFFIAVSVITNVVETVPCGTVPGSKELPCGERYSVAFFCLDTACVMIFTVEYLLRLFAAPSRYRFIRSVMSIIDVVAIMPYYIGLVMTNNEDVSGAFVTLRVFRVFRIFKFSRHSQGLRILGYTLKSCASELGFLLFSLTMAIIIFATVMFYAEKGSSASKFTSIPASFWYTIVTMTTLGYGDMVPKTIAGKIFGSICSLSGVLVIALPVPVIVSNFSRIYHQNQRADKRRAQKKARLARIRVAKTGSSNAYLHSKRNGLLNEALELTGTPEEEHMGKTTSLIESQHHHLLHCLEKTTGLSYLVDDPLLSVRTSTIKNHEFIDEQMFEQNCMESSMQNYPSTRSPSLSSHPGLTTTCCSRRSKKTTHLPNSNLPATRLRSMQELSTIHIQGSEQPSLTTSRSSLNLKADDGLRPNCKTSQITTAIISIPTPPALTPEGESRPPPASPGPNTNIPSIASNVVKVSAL
Protocol: (§1) Whole-cell currents of hKv1.5 and hKv4.3 were recorded in established HEK 293 cell lines stably expressing hKv1.5 (KCN5A) and hKv4.3 (KCND3) and IKACh was determined in isolated rat atrial myocytes as described previously[12][31][32] and in Supplemental Materials. […]
(§2) Effects of acacetin prodrug on cardiac potassium currents
(§3) Whole-cell currents of hKv1.5 and hKv4.3 were recorded in established HEK 293 cell lines stably expressing hKv1.5 (KCN5A) and hKv4.3 (KCND3).1, 2 The cells were cultured in Dulbecco’s modified eagle’s medium (DMEM, Invitrogen, Hong Kong) supplemented with 10% fetal bovine serum and 400 µg/mL G418. Cells on a coverslip were transferred to an open cell chamber (0.5 ml) mounted on the stage of an inverted microscope and superfused with Tyrode’s solution at 2 mL/min. The whole cell patch-clamp technique was used as described previously.1, 2 The whole-cell membrane currents were measured using an EPC-10 amplifier and Pulse software (Heka Elektronik, Lambrecht, Germany). Borosilicate glass electrodes (1.2-mm OD) were pulled with a Brown/Flaming puller (model P-97, Sutter Instrument, Nato, CA) and had resistances of 1.5~2.5 MΩ when filled with the pipette solution. A 3-M KCl agar bridge was used as the reference electrode. The tip potential was zeroed before the patch pipette contacted the cell. […]

[3] = target: T3, IKACh (acetylcholine-activated K+ current) (Rattus norvegicus, UniProt P48548+P63251); assay: Whole-cell IKACh elicited by 5 μM carbachol in rat atrial myocytes; assay type: cell-based; settings: 10 μM, at −100 mV, carbachol sensitive current, n = 5
T3 construct: endogenous in cells; host or cells: atrial myocytes dissociated from male Sprague-Dawley rats
T3 sequence (P63251 1-501): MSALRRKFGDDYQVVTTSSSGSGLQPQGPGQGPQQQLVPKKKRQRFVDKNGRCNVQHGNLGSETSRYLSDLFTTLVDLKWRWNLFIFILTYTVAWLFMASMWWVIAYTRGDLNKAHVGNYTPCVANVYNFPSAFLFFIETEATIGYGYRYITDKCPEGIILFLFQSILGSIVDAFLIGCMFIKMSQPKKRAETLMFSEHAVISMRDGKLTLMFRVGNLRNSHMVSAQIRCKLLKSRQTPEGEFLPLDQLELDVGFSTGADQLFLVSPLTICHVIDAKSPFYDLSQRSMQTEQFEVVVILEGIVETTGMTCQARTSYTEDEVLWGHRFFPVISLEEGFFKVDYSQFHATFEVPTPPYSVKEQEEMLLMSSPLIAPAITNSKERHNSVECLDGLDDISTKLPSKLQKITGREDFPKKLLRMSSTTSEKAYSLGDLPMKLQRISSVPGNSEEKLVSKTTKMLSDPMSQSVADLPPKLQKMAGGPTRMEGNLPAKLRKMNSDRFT
T3 sequence (P48548 1-419): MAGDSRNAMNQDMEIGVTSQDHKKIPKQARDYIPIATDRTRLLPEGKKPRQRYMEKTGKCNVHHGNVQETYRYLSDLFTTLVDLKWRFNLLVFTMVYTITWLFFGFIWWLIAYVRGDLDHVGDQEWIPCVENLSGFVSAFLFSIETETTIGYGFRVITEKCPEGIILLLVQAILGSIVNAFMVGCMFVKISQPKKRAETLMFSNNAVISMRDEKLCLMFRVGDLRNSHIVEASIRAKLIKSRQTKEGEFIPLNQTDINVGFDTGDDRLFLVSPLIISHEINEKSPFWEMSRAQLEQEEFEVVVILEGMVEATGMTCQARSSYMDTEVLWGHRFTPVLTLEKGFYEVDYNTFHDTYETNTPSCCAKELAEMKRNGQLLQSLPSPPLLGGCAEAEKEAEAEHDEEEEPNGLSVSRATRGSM
Protocol: as §1
Effects of acacetin prodrug on cardiac potassium currents […]
Cells on a coverslip were transferred to an open cell chamber (0.5 ml) mounted on the stage of an inverted microscope and superfused with Tyrode’s solution at 2 mL/min. The whole cell patch-clamp technique was used as described previously.1, 2 The whole-cell membrane currents were measured using an EPC-10 amplifier and Pulse software (Heka Elektronik, Lambrecht, Germany). Borosilicate glass electrodes (1.2-mm OD) were pulled with a Brown/Flaming puller (model P-97, Sutter Instrument, Nato, CA) and had resistances of 1.5~2.5 MΩ when filled with the pipette solution. A 3-M KCl agar bridge was used as the reference electrode. The tip potential was zeroed before the patch pipette contacted the cell. After a giga-Ohm seal was obtained, the cell membrane was ruptured by applying gentle pressure to establish a whole-cell configuration. […] The liquid junction potential (14.7 mV) calculated with the software Clampex was not corrected in the experiment and data […]
Whole-cell current of IKACh was determined in isolated rat atrial myocytes. […]

[4] = target: T4, hKv1.5 current (IKur, KCN5A) (Homo sapiens, UniProt P22460); assay: Whole-cell patch clamp of hKv1.5 current in HEK 293 cells; assay type: cell-based; settings: 10 μM, at +50 mV, current at end of the voltage step, n = 5
T4 construct: expressed in transfected cells
Protocol: as §1, §2, §3

T4 sequence (P22460 whole entry): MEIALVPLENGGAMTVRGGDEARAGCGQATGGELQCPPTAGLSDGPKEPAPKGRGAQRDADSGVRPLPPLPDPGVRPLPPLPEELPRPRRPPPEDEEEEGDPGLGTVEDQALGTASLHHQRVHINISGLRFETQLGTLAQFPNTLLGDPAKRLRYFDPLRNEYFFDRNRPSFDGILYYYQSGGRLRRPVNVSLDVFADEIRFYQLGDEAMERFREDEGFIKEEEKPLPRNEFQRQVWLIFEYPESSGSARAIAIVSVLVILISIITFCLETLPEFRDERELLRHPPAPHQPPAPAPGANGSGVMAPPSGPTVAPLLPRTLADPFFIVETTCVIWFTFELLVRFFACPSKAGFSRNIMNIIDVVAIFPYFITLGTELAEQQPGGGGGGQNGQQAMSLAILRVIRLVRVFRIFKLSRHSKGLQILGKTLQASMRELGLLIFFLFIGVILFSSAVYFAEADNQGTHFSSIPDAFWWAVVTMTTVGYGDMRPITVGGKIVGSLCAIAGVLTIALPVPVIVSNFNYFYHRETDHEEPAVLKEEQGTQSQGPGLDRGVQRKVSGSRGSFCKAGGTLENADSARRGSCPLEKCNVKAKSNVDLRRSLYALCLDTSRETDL
T1 sequence (Q12809 whole entry): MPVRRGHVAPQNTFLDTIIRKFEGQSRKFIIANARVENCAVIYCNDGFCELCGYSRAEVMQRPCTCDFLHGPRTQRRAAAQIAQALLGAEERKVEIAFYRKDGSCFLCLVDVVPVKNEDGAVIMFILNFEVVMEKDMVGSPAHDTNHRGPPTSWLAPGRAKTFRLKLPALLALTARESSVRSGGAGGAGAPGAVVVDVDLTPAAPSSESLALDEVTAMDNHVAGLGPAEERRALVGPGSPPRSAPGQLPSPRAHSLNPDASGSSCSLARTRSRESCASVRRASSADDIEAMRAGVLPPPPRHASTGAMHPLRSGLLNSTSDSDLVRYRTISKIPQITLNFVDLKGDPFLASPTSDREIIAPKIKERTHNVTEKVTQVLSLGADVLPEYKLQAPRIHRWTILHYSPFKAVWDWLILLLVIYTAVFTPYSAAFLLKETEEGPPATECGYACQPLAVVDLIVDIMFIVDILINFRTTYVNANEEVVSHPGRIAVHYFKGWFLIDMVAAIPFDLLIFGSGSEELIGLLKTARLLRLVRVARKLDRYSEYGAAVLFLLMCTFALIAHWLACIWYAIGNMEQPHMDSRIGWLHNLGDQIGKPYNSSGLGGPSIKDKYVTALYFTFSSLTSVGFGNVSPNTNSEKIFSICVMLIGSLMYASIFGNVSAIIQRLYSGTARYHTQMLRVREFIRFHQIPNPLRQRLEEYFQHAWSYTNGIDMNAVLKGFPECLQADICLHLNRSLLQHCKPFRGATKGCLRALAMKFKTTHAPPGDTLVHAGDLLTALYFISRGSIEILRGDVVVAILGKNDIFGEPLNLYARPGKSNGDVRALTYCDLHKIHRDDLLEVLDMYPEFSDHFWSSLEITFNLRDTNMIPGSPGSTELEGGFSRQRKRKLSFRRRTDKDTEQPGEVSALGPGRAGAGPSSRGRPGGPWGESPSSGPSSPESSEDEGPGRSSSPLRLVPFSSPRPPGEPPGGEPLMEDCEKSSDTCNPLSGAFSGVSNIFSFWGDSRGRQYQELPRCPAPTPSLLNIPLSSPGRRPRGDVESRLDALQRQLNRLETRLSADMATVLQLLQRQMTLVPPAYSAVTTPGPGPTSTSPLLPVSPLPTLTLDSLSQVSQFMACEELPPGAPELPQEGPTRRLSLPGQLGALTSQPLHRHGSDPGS

solubility [1] | solubility ([1]; 24 °C, saline or isotonic) | solubility ([1]; 24 °C, water) | decrease of hKv4.3 current [2] | decrease of IK.ACh [3] | decrease of hKv1.5 current [4] | Compound | solubility ([1]; 24 °C, saline or isotonic, in 0.9% NaCl, room temperature (23–25 °C), n = 3, read-out: maximum solubility) | solubility ([1]; 24 °C, saline or isotonic, in 5% glucose, room temperature (23–25 °C), n = 3, read-out: maximum solubility) | solubility ([1]; 24 °C, water, in H2O, room temperature (23–25 °C), n = 3, read-out: maximum solubility) | increase of aqueous solubility vs acacetin ([1]; in 0.9% NaCl) | increase of aqueous solubility vs acacetin ([1]; in 5% glucose) | increase of aqueous solubility vs acacetin ([1]; in H2O) | inhibition of hERG current (hERG channels)
– | – | – | – | – | – | COc1ccc(-c2cc(=O)c3c(O)cc(OP(=O)(O)O)cc3o2)cc1 [phosphate ester of acacetin] | 4.3 ± 0.1 µg/mL | 2.7 ± 0.1 µg/mL | 2.5 ± 0.1 µg/mL | 21 folds | 7.6 folds | 37.8 folds | –
0.195 ± 0.0135 µg/mL (≈ 0.686 µM) | 0.312 ± 0.0121 µg/mL (≈ 1.1 µM) | 0.0644 ± 0.0109 µg/mL (≈ 0.227 µM) | 69.3 ± 5.1% | 66.5 ± 3.1% | 79.7 ± 4.1% | COc1ccc(-c2cc(=O)c3c(O)cc(O)cc3o2)cc1 [acacetin] | – | – | – | – | – | – | ~ 50%

— PMC4861903, “Synthesis of a highly water-soluble acacetin prodrug for treating experimental atrial fibrillation in beagle dogs” (Scientific Reports, 2016)
